Results published in ChEMBL document CHEMBL1144996 (J Med Chem, 2003).

Tests used:
Carbonic anhydrase 1 = Carbonic anhydrase 1 (Homo sapiens, UniProt P00915)
Carbonic anhydrase 2 = Carbonic anhydrase 2 (Homo sapiens, UniProt P00918)
Carbonic anhydrase 9 = Carbonic anhydrase 9 (Homo sapiens, UniProt Q16790)

Chain of Carbonic anhydrase 1 (P00915 whole entry): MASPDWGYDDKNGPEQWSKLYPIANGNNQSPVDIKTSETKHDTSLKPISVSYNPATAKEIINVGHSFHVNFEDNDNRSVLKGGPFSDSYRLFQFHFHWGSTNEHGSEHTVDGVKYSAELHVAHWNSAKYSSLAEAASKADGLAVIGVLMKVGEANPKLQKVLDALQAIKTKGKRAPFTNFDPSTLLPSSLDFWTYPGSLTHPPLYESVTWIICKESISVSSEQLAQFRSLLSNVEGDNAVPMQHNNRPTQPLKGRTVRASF

| SMILES | Ki (Carbonic anhydrase 1) | Ki (Carbonic anhydrase 2) | Ki (Carbonic anhydrase 9) |
| --- | --- | --- | --- |
| C[C@]12CC[C@@H]3c4ccc(O)cc4CC[C@H]3[C@@H]1CC[C@@H]2OS(N)(=O)=O | 15 nM | 13 nM | 32 nM |
| C[C@]12CC[C@@H]3c4ccc(OS(N)(=O)=O)cc4CC[C@H]3[C@@H]1CC[C@@H]2OS(N)(=O)=O | 6 nM | 5 nM | 58 nM |
| NS(=O)(=O)Oc1ccc([N+](=O)[O-])cc1 | 40 nM | 1.5 nM | 36 nM |
| NS(=O)(=O)Oc1ccc(Cl)cc1 | 4.6 nM |  | 18 nM |
| N#Cc1ccc(OS(N)(=O)=O)cc1 | 480 nM | 149 nM | 41 nM |
| NS(=O)(=O)Oc1ccc(I)cc1 | 9.5 nM | 3.8 nM | 23 nM |
| Cc1ccc(OS(N)(=O)=O)cc1 | 3.8 nM | 1.9 nM | 59 nM |
| NS(=O)(=O)Oc1ccc(Br)cc1 | 7.3 nM |  | 19 nM |
| CC1(C)OCC(C2OC3OC(C)(C)OC3[C@H]2OS(N)(=O)=O)O1 (some centres not stated) | 278 nM | 15 nM | 39 nM |
| NS(=O)(=O)Oc1c(Cl)cc(Cl)cc1Cl | 454 nM | 138 nM | 37 nM |
| NS(=O)(=O)Oc1ccc(-c2ccccc2)cc1 | 113 nM | 95 nM | 50 nM |
| NS(=O)(=O)OCCOc1ccc(-n2ccnc2)cc1 | 28 nM | 23 nM | 26 nM |
| CC(=O)Nc1ccc(OS(N)(=O)=O)cc1 | 37 nM | 18 nM | 45 nM |
| NS(=O)(=O)Oc1ccc(Oc2ccccc2)cc1 | 115 nM | 98 nM | 51 nM |
| CC(C)(C)c1ccc(OS(N)(=O)=O)cc1 | 43 nM | 2.9 nM |  |
| C[C@]12CCC(OS(N)(=O)=O)CC1=CCC1C2CC[C@]2(C)C(=O)CCC12 (some centres not stated) | 31 nM | 27 nM | 44 nM |
| CC1(C)O[C@@H]2[C@H](O1)[C@H]1OC(C)(C)OC1O[C@@H]2COS(N)(=O)=O (some centres not stated) | 315 nM | 29 nM | 32 nM |
| COc1ccc(OS(N)(=O)=O)cc1 | 33 nM | 1.6 nM | 34 nM |
| C[C@]12CC[C@@H]3c4ccc(OS(N)(=O)=O)cc4CC[C@H]3[C@@H]1CCC2=O [EMATE] | 37 nM |  |  |
| NS(=O)(=O)Oc1ccccc1 [PHENYLSULFAMATE] | 2.1 nM |  | 63 nM |
| NS(=O)(=O)Oc1c(Cl)c(Cl)c(Cl)c(Cl)c1Cl [SULFAMIC ACID PENTACHLOROPHENYL ESTER] | 432 nM | 125 nM | 39 nM |
